Results published in US20110171309A1, “Compositions and Methods for Composite Nanoparticle Hydrogels” (Board of Regents, The University of Texas System, priority 2008, published 2011).

Legend:
[1] = test system: human aortic smooth muscle cells; assay: Combined effects of photoinitiator and UV exposure on cell survival, MTS assay; assay type: cell-based; conditions: 3 days
Method: (§1) Human aortic smooth muscle cells (HASMC) were cultured in complete medium consisting of Dulbecco's modified Eagle medium supplemented with 10% fetal bovine serum and 1% penicillin-streptomycin (Invitrogen, Carlsbad, Calif.). Upon 80-90% confluency, the cells were passaged or used for experiments. For all experiments, the cells were seeded in 24-well plates (Corning, Corning, N.Y.) at a density of 7000 cells per well. Following seeding, the cells were incubated at 37 °C and 5% CO2 in a humid environment for 2 days to allow cellular attachment and growth. After 2 days, the HASMCs were exposed to varying concentrations of the photoinitiator Irgacure 2959 (Ciba Specialty Chemicals), and/or UV exposure.
The cellular damage due to the combined effects of photoinitiator and UV exposure was evaluated. Briefly, the HASMCs were seeded onto 24-well plates and allowed to grow for 2 days. Irgacure 2959 solutions with final concentrations of 0.01%, 0.015%, 0.04%, and 0.08% (w/v) in complete media were prepared. After adding these solutions, cells were incubated for 30 min to allow for the mixing of the photoinitiator. The well plates were then exposed to 1, 3, and 5 min of UV light. Wells containing cells not exposed to either UV light or photoinitiator solution served as controls for this experiment. Cell samples were incubated for 3 days before analyzing the cell survival. […] The cell survival for the controls was determined to be 1±0.09.
(§2) After the experiments, the cell survival was quantified using the MTS assay (CellTiter 961 Aqueous One Solution Cell Proliferation Assay, Promega) following the manufacturer's instructions. The cells were incubated with the MTS reagent for 4 h, after which 200 μL of the solution was transferred to 96-well plates, and absorbance was read at 490 nm using a microplate reader (VMax, Molecular Devices). Relative cell survival was obtained by dividing the absorbance reading of a cell sample by the mean absorbance value of the control.

[2] = test system: human aortic smooth muscle cells; assay: Cytotoxic effects of photoinitiator concentrations, MTS assay; assay type: cell-based; conditions: no UV, 3 days
Method: as §1
To evaluate the cytotoxic effects of photoinitiator concentrations on HASMCs, the cells were seeded and cultured as described earlier. Irgacure 2959 was directly dissolved in complete media to obtain final concentrations of 0.01%, 0.02%, 0.04%, 0.08%, and 0.16% (w/v). These photoinitiator concentrations were well within the range required for photopolymerization in a short period of time. […] These solutions were then sterilized using 0.2-μm syringe filters before they were added to the HASMCs. The control wells consisted of cells incubated with photoinitiator-free complete media. After the addition of the photoinitiator, the cells were incubated for 3 days, and then cell survival was determined using MTS assays. The cell survival for the controls was determined to be 1±0.09. […] Upon increasing the photoinitiator concentrations above 0.02% (w/v), a statistically significant decrease was noticed in the relative cell survival.
as §2

[3] = test system: NIH/3T3 fibroblast cells; conditions: concentrations 0.05% (w/w); cited from earlier work
[4] = test system: human aortic smooth muscle cells; assay: Ascorbic acid scavenging of free radicals to increase cell survival, MTS assay; assay type: cell-based; conditions: 50 mg/L ascorbic acid, 0.15% (w/v) Irgacure 2959, 5 min UV, 3 days
Method: The efficiency of the antioxidant, ascorbic acid, was evaluated in scavenging the free radicals in an effort to increase cell survival. HASMCs were exposed to 0.15% (w/v) solution of Irgacure 2959 in complete media supplemented with varying concentrations of ascorbic acid (0-200 mg/L). After incubating for 30 min, the cells were exposed to 5 min of UV light, and cell survival was quantified after 3 days. To evaluate the effect of added antioxidants on the gelation time, the gelation times (i.e., the time required for the materials to form a gel) were determined using three methods on 96-well plates. […] Then, the solution was monitored at that this specific wavelength AQ3 (610 nm) over a time course. The result was graphed as function of time, and the gelation time was defined as the time that had the highest changes in the absorbance intensities.
as §2

## CC(C)(O)C(=O)c1ccc(OCCO)cc1 [Irgacure 2959, 2-hydroxy-1-[4-(2-hydroxyethoxy)phenyl]-2-methyl-1-propanone]
[1]; 0.01% (w/v), 1, 3 and 5 min UV
  relative cell survival: did not show any statistically significant decrease in relative cell survival
[1]; 0.015% (w/v), 1, 3 and 5 min UV
  relative cell survival: did not show any statistically significant decrease in relative cell survival
[1]; 0.04% (w/v), 1 min UV
  relative cell survival: 0.76±0.05
[1]; 0.04% (w/v), 3 min UV
  relative cell survival: 0.74±0.04
[1]; 0.04% (w/v), 5 min UV
  relative cell survival: 0.67±0.05
[2]; 0.01% (w/v)
  relative cell survival: 1.03±0.10
[2]; 0.02% (w/v)
  relative cell survival: 0.85±0.09
[2]; 0.16% (w/v)
  relative cell survival: 0.25±0.01
[2]; below 0.02% (w/v)
  cell survival: no significant decrease in cell survival
[3]
  fibroblast survival: does not affect fibroblast survival

## O=C1O[C@H]([C@@H](O)CO)C(O)=C1O [ascorbic acid]
[4]
  relative cell survival compared to samples without ascorbic acid: significantly improve the relative cell survival rates
